Test results as given in patent US5085995A, “Method for producing saffron stigma-like tissue and method for producing useful components from saffron stigma-like tissue” (Somar Corporation, priority 1989, dated 1992).

Key:
saffron ovary [1] = assay: Tissue culture of saffron ovary in MS medium with alanine; visual rating of stigma-like tissue (Example 3); assay type: cell-based; settings: BA 10 ppm, 7 weeks, scale 0-10
Excerpt: (§1) The relative amount of the stigma-like tissue was visually determined and rated according to an 11-part divided scale, taking an amount corresponding to the amount of naturally-occurring three stigmata containing saffron pigment as 10, nil as 0, and equally dividing the interval therebetween.
(§2) The relative color density of the stigma-like tissue was visually determined, and rated according to an 11-part divided scale, taking a density corresponding to the density of a naturally-occurring stigma containing saffron pigment as 10 and colorlessness as 0, and equally dividing the interval therebetween.
(§3) Guaran powder was then added to the medium in a concentration of 0.2% by weight. The medium was sterilized at 120° C. for 20 minutes in an autoclave. The sterilized medium was aloquated into sterile plastic plates having a diameter of 55 mm, followed by cooling to solidify.
(§4) A bud of a saffron flower before opening was harvested, sterilized by soaking in a 0.5 vol% sodium hypochlorite aqueous solution for 10 minutes, and washed with water. The ovary portion of the bud was taken out and cut to pieces of about 8 mm. Each cut piece was seeded on each of the above-prepared solid media.
(§5) The ovary was subjected to static culture at 25° C. in a dark room. Production of a stigma-like tissue was recognized in the cultures in about 4 weeks at the soonest. In 7 weeks, the stigma-like tissue grew and assumed a red color, indicating considerable production of the saffron pigment.
(§6) After 7 weeks of culturing, the tissue cultures were visually observed and evaluated in the same manner as in Example 1.

saffron ovary [2] = assay: Tissue culture of saffron ovary in Linsmaier-Skoog medium with alanine; visual rating of stigma-like tissue (Example 4); assay type: cell-based; settings: Ki 2 ppm, scale 0-10
Excerpt: as §1, §2, §3, §4, §5, §6
(§7) A saffron ovary was cultured in the same manner as in Example 3, except for replacing the MS medium with a Linsmaier-Skoog medium to which Ki, NAA and alanine were added in the concentrations shown in Table 11.

[3] = tested on: corolla tube of a saffron; assay: Tissue culture of saffron corolla tube with alanine; visual rating of stigma-like tissue (Example 5); assay type: cell-based; settings: Ki 2 ppm, Linsmaier-Skoog medium, scale 0-10
Excerpt: as §1, §2, §3, §4, §6, §7
The procedure of Example 4 was repeated except for replacing the ovary with a corolla tube of a saffron.

style of saffron = assay: Tissue culture of saffron style with alanine; visual rating of stigma-like tissue (Example 6); assay type: cell-based; settings: Ki 2 ppm, Linsmaier-Skoog medium, scale 0-10
Excerpt: as §1, §2, §3, §4, §6, §7
The procedure of Example 4 was repeated except for replacing the overy with a style of saffron.

stigma of saffran = assay: Tissue culture of saffron stigma with alanine; visual rating of stigma-like tissue (Example 7); assay type: cell-based; settings: Ki 2 ppm, Linsmaier-Skoog medium, scale 0-10
Excerpt: as §1, §2, §3, §4, §6, §7
The procedure of Example 4 was repeated except for replacing the ovary with a stigma of saffran.

[4] = tested on: female organ and/or corolla tube of saffron; assay: Tissue culture of female organ and/or corolla tube of saffron in the presence of alanine; assay type: cell-based; settings: compared with cultures in the absence of alanine
Excerpt: In this embodiment, a female organ and/or a corolla tube of a saffron flower is tissue-cultured in a medium containing a plant hormone and alanine in a bright or dark room.
Female organs and/or corolla tubes to be cultured are harvested from saffron flowers before opening, i.e., flowers in the bud and subjected to tissue culture in the manner as in the first embodiment by using a medium containing alanine to produce and proliferate the stigma-like tissue. When using female organs and/or corolla tubes harvested after flower opening, the amount of the stigma-like tissue produced tends to be reduced.
In cases where female organs and/or corolla tubes are cultured in the second embodiment, the culture medium should further contain alanine to accelerate the production of the stigma-like tissue. Alanine is preferably added to a medium in concentrations of from about 0.005 to 10g/l, more preferably from 0.1 to 10g/l. The alanine to be added may be any of D- or L-optical isomers and a racemate.
Tissue culture according to the present invention can be performed either by static culture using a solid medium or by shake culture using a liquid medium. The solid medium includes a medium containing about 0.8% by weight of agar and a Murashige-Skoog medium containing 0.2% by weight of guaran. The culturing may be in either a bright room or a dark room. […]

[5] = tested on: undifferentiated callus of saffron bulb; settings: undifferentiated callus culture of saffron bulb; symposium 1987; cited from earlier work

C[C@H](N)C(=O)O (racemic) [Alanine, alanine]
Relative Color Density of Stigma-Like Tissue Containing Saffron Pigment (saffron ovary [1]; alanine 0.005 g/l, NAA 0.1 ppm): 8
Relative Production of Stigma-Like Tissue Containing Saffron Pigment (saffron ovary [1]; alanine 0.005 g/l, NAA 0.1 ppm): 4
Relative Color Density of Stigma-Like Tissue Containing Saffron Pigment (saffron ovary [1]; alanine 0.005 g/l, NAA 1.0 ppm): 8
Relative Production of Stigma-Like Tissue Containing Saffron Pigment (saffron ovary [1]; alanine 0.005 g/l, NAA 1.0 ppm): 4
Relative Color Density of Stigma-Like Tissue Containing Saffron Pigment (saffron ovary [1]; alanine 0.01 g/l, NAA 0.1 ppm): 8
Relative Production of Stigma-Like Tissue Containing Saffron Pigment (saffron ovary [1]; alanine 0.01 g/l, NAA 0.1 ppm): 5
Relative Color Density of Stigma-Like Tissue Containing Saffron Pigment (saffron ovary [1]; alanine 0.01 g/l, NAA 1.0 ppm): 8
Relative Production of Stigma-Like Tissue Containing Saffron Pigment (saffron ovary [1]; alanine 0.01 g/l, NAA 1.0 ppm): 5
Relative Color Density of Stigma-Like Tissue Containing Saffron Pigment (saffron ovary [1]; alanine 0.1 g/l, NAA 0.1 ppm): 9
Relative Production of Stigma-Like Tissue Containing Saffron Pigment (saffron ovary [1]; alanine 0.1 g/l, NAA 0.1 ppm): 5
Relative Color Density of Stigma-Like Tissue Containing Saffron Pigment (saffron ovary [1]; alanine 0.1 g/l, NAA 1.0 ppm): 9
Relative Production of Stigma-Like Tissue Containing Saffron Pigment (saffron ovary [1]; alanine 0.1 g/l, NAA 1.0 ppm): 6
Relative Color Density of Stigma-Like Tissue Containing Saffron Pigment (saffron ovary [1]; alanine 1.0 g/l, NAA 0.1 ppm): 9
Relative Production of Stigma-Like Tissue Containing Saffron Pigment (saffron ovary [1]; alanine 1.0 g/l, NAA 0.1 ppm): 7
Relative Color Density of Stigma-Like Tissue Containing Saffron Pigment (saffron ovary [1]; alanine 1.0 g/l, NAA 1.0 ppm): 9
Relative Production of Stigma-Like Tissue Containing Saffron Pigment (saffron ovary [1]; alanine 1.0 g/l, NAA 1.0 ppm): 8
Relative Color Density of Stigma-Like Tissue Containing Saffron Pigment (saffron ovary [1]; alanine 5.0 g/l, NAA 0.1 ppm): 9
Relative Production of Stigma-Like Tissue Containing Saffron Pigment (saffron ovary [1]; alanine 5.0 g/l, NAA 0.1 ppm): 6
Relative Color Density of Stigma-Like Tissue Containing Saffron Pigment (saffron ovary [1]; alanine 5.0 g/l, NAA 1.0 ppm): 8
Relative Production of Stigma-Like Tissue Containing Saffron Pigment (saffron ovary [1]; alanine 5.0 g/l, NAA 1.0 ppm): 6
Relative Color Density of Stigma-Like Tissue Containing Saffron Pigment (saffron ovary [1]; alanine 10.0 g/l, NAA 0.1 ppm): 8
Relative Production of Stigma-Like Tissue Containing Saffron Pigment (saffron ovary [1]; alanine 10.0 g/l, NAA 0.1 ppm): 5
Relative Color Density of Stigma-Like Tissue Containing Saffron Pigment (saffron ovary [1]; alanine 10.0 g/l, NAA 1.0 ppm): 8
Relative Production of Stigma-Like Tissue Containing Saffron Pigment (saffron ovary [1]; alanine 10.0 g/l, NAA 1.0 ppm): 5
Relative Color Density of Stigma-Like Tissue Containing Saffron Pigment (saffron ovary [1]; alanine 20.0 g/l, NAA 0.1 ppm): 8
Relative Production of Stigma-Like Tissue Containing Saffron Pigment (saffron ovary [1]; alanine 20.0 g/l, NAA 0.1 ppm): 3
Relative Color Density of Stigma-Like Tissue Containing Saffron Pigment (saffron ovary [1]; alanine 20.0 g/l, NAA 1.0 ppm): 7
Relative Production of Stigma-Like Tissue Containing Saffron Pigment (saffron ovary [1]; alanine 20.0 g/l, NAA 1.0 ppm): 4
Relative Color Density of Stigma-Like Tissue Containing Saffron Pigment (saffron ovary [2]; alanine 0.01 g/l, NAA 0.1 ppm): 5
Relative Production of Stigma-Like Tissue Containing Saffron Pigment (saffron ovary [2]; alanine 0.01 g/l, NAA 0.1 ppm): 3
Relative Color Density of Stigma-Like Tissue Containing Saffron Pigment (saffron ovary [2]; alanine 0.01 g/l, NAA 1.0 ppm): 6
Relative Production of Stigma-Like Tissue Containing Saffron Pigment (saffron ovary [2]; alanine 0.01 g/l, NAA 1.0 ppm): 3
Relative Color Density of Stigma-Like Tissue Containing Saffron Pigment (saffron ovary [2]; alanine 0.1 g/l, NAA 0.1 ppm): 6
Relative Production of Stigma-Like Tissue Containing Saffron Pigment (saffron ovary [2]; alanine 0.1 g/l, NAA 0.1 ppm): 4
Relative Color Density of Stigma-Like Tissue Containing Saffron Pigment (saffron ovary [2]; alanine 0.1 g/l, NAA 1.0 ppm): 6
Relative Production of Stigma-Like Tissue Containing Saffron Pigment (saffron ovary [2]; alanine 0.1 g/l, NAA 1.0 ppm): 4
Relative Color Density of Stigma-Like Tissue Containing Saffron Pigment (saffron ovary [2]; alanine 1.0 g/l, NAA 0.1 ppm): 7
Relative Production of Stigma-Like Tissue Containing Saffron Pigment (saffron ovary [2]; alanine 1.0 g/l, NAA 0.1 ppm): 5
Relative Color Density of Stigma-Like Tissue Containing Saffron Pigment (saffron ovary [2]; alanine 1.0 g/l, NAA 1.0 ppm): 7
Relative Production of Stigma-Like Tissue Containing Saffron Pigment (saffron ovary [2]; alanine 1.0 g/l, NAA 1.0 ppm): 5
Relative Color Density of Stigma-Like Tissue Containing Saffron Pigment (saffron ovary [2]; alanine 5.0 g/l, NAA 0.1 ppm): 6
Relative Production of Stigma-Like Tissue Containing Saffron Pigment (saffron ovary [2]; alanine 5.0 g/l, NAA 0.1 ppm): 5
Relative Color Density of Stigma-Like Tissue Containing Saffron Pigment (saffron ovary [2]; alanine 5.0 g/l, NAA 1.0 ppm): 7
Relative Production of Stigma-Like Tissue Containing Saffron Pigment (saffron ovary [2]; alanine 5.0 g/l, NAA 1.0 ppm): 5
Relative Color Density of Stigma-Like Tissue Containing Saffron Pigment ([3]; alanine 0.01 g/l, NAA 0.1 ppm): 6
Relative Production of Stigma-Like Tissue Containing Saffron Pigment ([3]; alanine 0.01 g/l, NAA 0.1 ppm): 4
Relative Color Density of Stigma-Like Tissue Containing Saffron Pigment ([3]; alanine 0.01 g/l, NAA 1.0 ppm): 6
Relative Production of Stigma-Like Tissue Containing Saffron Pigment ([3]; alanine 0.01 g/l, NAA 1.0 ppm): 4
Relative Color Density of Stigma-Like Tissue Containing Saffron Pigment ([3]; alanine 0.1 g/l, NAA 0.1 ppm): 7
Relative Production of Stigma-Like Tissue Containing Saffron Pigment ([3]; alanine 0.1 g/l, NAA 0.1 ppm): 5
Relative Color Density of Stigma-Like Tissue Containing Saffron Pigment ([3]; alanine 0.1 g/l, NAA 1.0 ppm): 7
Relative Production of Stigma-Like Tissue Containing Saffron Pigment ([3]; alanine 0.1 g/l, NAA 1.0 ppm): 5
Relative Color Density of Stigma-Like Tissue Containing Saffron Pigment ([3]; alanine 1.0 g/l, NAA 0.1 ppm): 7
Relative Production of Stigma-Like Tissue Containing Saffron Pigment ([3]; alanine 1.0 g/l, NAA 0.1 ppm): 6
Relative Color Density of Stigma-Like Tissue Containing Saffron Pigment ([3]; alanine 1.0 g/l, NAA 1.0 ppm): 7
Relative Production of Stigma-Like Tissue Containing Saffron Pigment ([3]; alanine 1.0 g/l, NAA 1.0 ppm): 6
Relative Color Density of Stigma-Like Tissue Containing Saffron Pigment ([3]; alanine 5.0 g/l, NAA 0.1 ppm): 7
Relative Production of Stigma-Like Tissue Containing Saffron Pigment ([3]; alanine 5.0 g/l, NAA 0.1 ppm): 6
Relative Color Density of Stigma-Like Tissue Containing Saffron Pigment ([3]; alanine 5.0 g/l, NAA 1.0 ppm): 7
Relative Production of Stigma-Like Tissue Containing Saffron Pigment ([3]; alanine 5.0 g/l, NAA 1.0 ppm): 6
Relative Density of Stigma-Like Tissue Containing Saffron Pigment (style of saffron; alanine 0.1 g/l, NAA 0.1 ppm): 6
Relative Production of Stigma-Like Tissue Containing Saffron Pigment (style of saffron; alanine 0.1 g/l, NAA 0.1 ppm): 4
Relative Density of Stigma-Like Tissue Containing Saffron Pigment (style of saffron; alanine 0.1 g/l, NAA 1.0 ppm): 7
Relative Production of Stigma-Like Tissue Containing Saffron Pigment (style of saffron; alanine 0.1 g/l, NAA 1.0 ppm): 5
Relative Density of Stigma-Like Tissue Containing Saffron Pigment (style of saffron; alanine 1.0 g/l, NAA 0.1 ppm): 7
Relative Production of Stigma-Like Tissue Containing Saffron Pigment (style of saffron; alanine 1.0 g/l, NAA 0.1 ppm): 5
Relative Density of Stigma-Like Tissue Containing Saffron Pigment (style of saffron; alanine 1.0 g/l, NAA 1.0 ppm): 7
Relative Production of Stigma-Like Tissue Containing Saffron Pigment (style of saffron; alanine 1.0 g/l, NAA 1.0 ppm): 6
Relative Density of Stigma-Like Tissue Containing Saffron Pigment (style of saffron; alanine 5.0 g/l, NAA 0.1 ppm): 7
Relative Production of Stigma-Like Tissue Containing Saffron Pigment (style of saffron; alanine 5.0 g/l, NAA 0.1 ppm): 5
Relative Density of Stigma-Like Tissue Containing Saffron Pigment (style of saffron; alanine 5.0 g/l, NAA 1.0 ppm): 8
Relative Production of Stigma-Like Tissue Containing Saffron Pigment (style of saffron; alanine 5.0 g/l, NAA 1.0 ppm): 6
Relative Color Density of Stigma-Like Tissue Containing Saffron Pigment (stigma of saffran; alanine 0.1 g/l, NAA 0.1 ppm): 6
Relative Production of Stigma-Like Tissue Containing Saffron Pigment (stigma of saffran; alanine 0.1 g/l, NAA 0.1 ppm): 3
Relative Color Density of Stigma-Like Tissue Containing Saffron Pigment (stigma of saffran; alanine 0.1 g/l, NAA 1.0 ppm): 8
Relative Production of Stigma-Like Tissue Containing Saffron Pigment (stigma of saffran; alanine 0.1 g/l, NAA 1.0 ppm): 4
Relative Color Density of Stigma-Like Tissue Containing Saffron Pigment (stigma of saffran; alanine 1.0 g/l, NAA 0.1 ppm): 8
Relative Production of Stigma-Like Tissue Containing Saffron Pigment (stigma of saffran; alanine 1.0 g/l, NAA 0.1 ppm): 4
Relative Color Density of Stigma-Like Tissue Containing Saffron Pigment (stigma of saffran; alanine 1.0 g/l, NAA 1.0 ppm): 8
Relative Production of Stigma-Like Tissue Containing Saffron Pigment (stigma of saffran; alanine 1.0 g/l, NAA 1.0 ppm): 4
Relative Color Density of Stigma-Like Tissue Containing Saffron Pigment (stigma of saffran; alanine 5.0 g/l, NAA 0.1 ppm): 7
Relative Production of Stigma-Like Tissue Containing Saffron Pigment (stigma of saffran; alanine 5.0 g/l, NAA 0.1 ppm): 4
Relative Color Density of Stigma-Like Tissue Containing Saffron Pigment (stigma of saffran; alanine 5.0 g/l, NAA 1.0 ppm): 7
Relative Production of Stigma-Like Tissue Containing Saffron Pigment (stigma of saffran; alanine 5.0 g/l, NAA 1.0 ppm): 4
quantities of stigma-like tissue and the pigment [4]: larger quantities of stigma-like tissue and the pigment
effect of addition of alanine to the medium [5]: discharge of a red substance into the medium
